Measured values: paper PMC11778240, “Synthesis and preclinical evaluation of tigilanol tiglate analogs as latency-reversing agents for the eradication of HIV” (Science Advances, 2025)
“And” between values parts separate entries of the source, which are not always exact repeats. Identical values can stand only once. Like-named read-outs stand apart in the source and are kept apart here.

Molecular target: T1, PKC-β-I (Homo sapiens, UniProt P05771)
T1 construct: purchased Invitrogen
Assay: Cell-free PKC competition binding assay against 3H-PDBu
Details: for PKC-β selectivity: Fig. 7A, PKC-β over PKC-δ; for logKi (best-fit value), PKC-β-I: log of Ki in nM; for PKC binding affinity and selectivity in words / decrease in PKC binding affinity / potency compared to EBC-46: PKC-β and PKC-δ
Source text: With a diverse library of compounds bearing unique functionalities on the A-, B-, and C-rings (Fig. 6), we began to explore how these modifications affect PKC binding (Fig. 7A), NF-κB activation (Fig. 7B), cell permeation and PKC translocation (Fig. 7, C and D), and latency reversal in J-Lat cells (Fig. 8). […] We conducted this assay with phosphatidyl serine vesicles in solution that mimic the cellular membrane and play a critical role in the binding of small molecules to the PKC C1 domain (Fig. 7A) ([64]).
Cell-free PKC Binding Assay
The protein kinase C (PKC) affinity of EBC-46 and EBC-46 analogs was determined via […]
entails a glass-fiber filtration method to determine bound radioligand. The method of determining the radioligand Kd is also described.
Tris HCl (Fisher, ≥ 99%, stored at room temperature)
Phosphatidylserine (Avanti Polar Lipids, porcine, 25 mg/mL CHCl3 solution, stored at - […]
Bovine serum albumin (Sigma -Aldrich, ≥ 98%, globulin free, protease free, stored at 4 […]
Human PKC-β-I-GST fusion protein (Invitrogen, aliquoted and stored at -78 °C) Human PKC-δ-GST fusion protein (Invitrogen, aliquoted and stored at -78 °C) Glass-fiber filters (Whatman GF/B) […]
a final concentration of 500 nM.
Preparation of phosphatidylserine (PS) vesicles :
For every 96 samples, 3.5 mg phosphatidylserine (140 μL) (25 mg/mL CHCl3 solution) was concentrated by removing chloroform under reduced pressure. The phosphatidylserine residue was resuspended in freshly prepared PKC binding assay buffer (3.5 mL), capped, and then thoroughly mixed by alternating between sonicating and vortexing, in 10 second intervals for 1 minute or until a cloudy white mixture (Branson Sonifier 250, power = 2, 50% duty cycle). The resulting cloudy white mixture (1 mg/mL) was stored on ic e until use.
Preparation of the "master mix" Solution :
Constituent Stock concentration (final concentration/amount in “master mix”):
PS vesicles (0.103 mg/mL)
Deionized H2O - Final vol of 30 mL
Preparation of PKC binding assay buffer:
For every 96 samples, to a 50 mL polypropylene tube was added Tris -HCl (pH 7.4, 1 M, 1.5 mL), KCl (1 M, 3 mL), CaCl2 (0.1 M, 35 μL – conventional isoforms only), and bovine serum albumin (60 mg). This mixture was diluted to 30 mL with deionized H2O and mixed gently. The buffer was […]
Preparation of PKC isoform solution:
For every 96 samples, PKC isoform solution was prepared by dissolving a 4 μg aliquot of the indicated recombinant human PKC isoform into 26.5 mL of PKC binding assay buffer. The diluted PKC was stored on ice for immediate use.
Preparation of PKC “master mix” solution:
To the PKC-isoform solution was added 1 mg/mL PS vesicles solution (3.30 mL), and 500 nM […]
The resulting “master mix” solution was vortexed and stored on […]
Preparation of analog compound dilutions:
Compound dilutions were prepared with filtered DMSO by serially diluting from a chosen "high" concentration. For the saturation binding experiment (radioligand Kd determination), the maximum radioligand concentration used was 4.0 nM with 2-fold dilutions between data points […]
the middle of the binding curve.
For the competition binding experiment (analog Ki determination), 7 or 14 concentrations were used to define the inhibition curve, and compounds dilutions changed by factors of 2 or √2 between data points. The concentrations were chosen such that the in-assay concentration for the data points in the middle of the binding curve were approximately equal to the IC50 of the compound (if the IC50 is unknown, an exploratory binding assay is recommended prior to Ki determination). For assays with one compound per sheet, the √2-fold dilutions were prepared for the concentrations in […]
PKC binding assay protocol (Saturation -binding experiment and Competition -binding experiment)
1) Glass-fiber filters were prepared by soaking them in a solution of aqueous polyethyleneimine

[1] = HotNM 2.5, HotKdNM 0.37, supplement fit, read-out: Ki (best-fit value), PKC-β-I
[2] = competition against radiolabeled PDBu, Fig. 7A and text, read-out: Ki PKC-β

T1 sequence (P05771 whole entry): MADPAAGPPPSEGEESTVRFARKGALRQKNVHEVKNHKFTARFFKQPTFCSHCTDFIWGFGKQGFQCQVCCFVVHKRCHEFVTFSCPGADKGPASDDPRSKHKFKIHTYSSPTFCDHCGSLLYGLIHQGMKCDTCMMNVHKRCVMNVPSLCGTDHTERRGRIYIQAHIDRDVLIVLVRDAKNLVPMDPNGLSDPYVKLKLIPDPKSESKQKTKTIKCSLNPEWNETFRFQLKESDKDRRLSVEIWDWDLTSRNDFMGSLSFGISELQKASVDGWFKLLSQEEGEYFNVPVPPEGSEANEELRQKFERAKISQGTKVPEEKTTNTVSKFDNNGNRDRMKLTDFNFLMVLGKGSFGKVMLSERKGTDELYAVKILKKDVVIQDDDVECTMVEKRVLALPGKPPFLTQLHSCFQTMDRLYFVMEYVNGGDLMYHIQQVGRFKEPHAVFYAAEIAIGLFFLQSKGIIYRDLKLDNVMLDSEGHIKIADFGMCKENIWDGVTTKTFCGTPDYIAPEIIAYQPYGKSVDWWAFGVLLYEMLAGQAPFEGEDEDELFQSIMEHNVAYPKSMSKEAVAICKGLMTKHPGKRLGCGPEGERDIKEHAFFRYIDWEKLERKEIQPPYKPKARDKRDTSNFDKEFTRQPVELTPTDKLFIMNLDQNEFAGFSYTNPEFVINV

Row | Compound | PKC-β selectivity | Ki [1] | Ki [2] | logKi (best-fit value), PKC-β-I (HotNM 2.5, HotKdNM 0.37) | PKC binding affinity and selectivity in words | decrease in PKC binding affinity / potency compared to EBC-46 | selectivity for PKC-β over PKC-δ | stronger binding for PKC-β compared to EBC-46 | Ki (read-out: binding for PKC-β (Ki)) | preference for binding PKC-β over PKC-δ (Discussion)
1 | C/C=C(\C)C(=O)O[C@@H]1[C@@H](C)[C@@]2(O)[C@H]([C@@H]3C(C)(C)[C@]13OC(=O)[C@H](C)CC)[C@@H]1O[C@]1(CO)[C@@H](O)[C@]1(O)C(=O)C(C)=C[C@H]12 [SUW407] | 1.6 | 2.31 nM | 2.3 nM | 0.3637 | – | – | – | – | – | –
2 | C/C=C(\C)C(=O)O[C@@H]1[C@@H](C)[C@]2(O)[C@@H]3C=C(C)[C@H](OC(=O)C=C(C)C)[C@@]3(O)[C@H](O)C(CO)=C[C@H]2[C@@H]2C(C)(C)[C@]12OC(=O)[C@@H](C)CC [SUW425] | 1.8 | 2.61 nM | 2.6 nM | 0.4165 | approximately the same as EBC-46 | – | – | – | – | –
3 | CC[C@H](C)C(=O)O[C@@]12[C@H](OC(=O)C3(C)CC3)[C@@H](C)[C@@]3(O)[C@H]([C@@H]1C2(C)C)[C@@H]1O[C@]1(CO)[C@@H](O)[C@]1(O)C(=O)C(C)=C[C@H]13 [SUW413] | 3.9 | 2.45 nM | 2.5 nM | 0.3892 | very similar binding affinity to both PKC-β and PKC-δ compared to SUW406 | – | – | – | – | –
4 | C/C=C(\C)C(=O)O[C@@H]1[C@@H](C)[C@]2(O)[C@@H]3C=C(C)[C@H](OC(=O)c4ccccc4)[C@@]3(O)[C@H](O)C(CO)=C[C@H]2[C@@H]2C(C)(C)[C@]12OC(=O)[C@@H](C)CC [SUW422] | 2.1 | 1.49 nM | 1.5 nM | 0.1731 | nearly identical binding potency and selectivity to EBC-46 | – | – | – | – | –
5 | CC=C(C)C(=O)OC1C(C)C2(O)C(C3OC3(COC)C(O)C3(O)C(=O)C(C)=CC32)C2C(C)(C)C12OC(=O)C(C)CC (stereo not drawn) [SUW426] | 1.8 | 396 nM | 400 nM | 2.598 | – | approximately 250 fold | – | – | – | –
6 | C/C=C(\C)C(=O)O[C@@H]1[C@@H](C)[C@]2(O)[C@@H]3C=C(C)C(=O)[C@@]3(O)[C@H](O)C(CO)=C[C@H]2[C@@H]2C(C)(C)[C@]12OC(=O)[C@@H](C)CC [SUW400] | 2.9 | 0.851 nM | 0.85 nM | -0.07019 | nearly identical binding affinity and selectivity compared to EBC-46 | – | – | – | – | –
7 | CC[C@H](C)C(=O)O[C@@]12[C@H](OC(C)(C)C)[C@@H](C)[C@@]3(O)[C@H]([C@@H]1C2(C)C)[C@@H]1O[C@]1(CO)[C@@H](O)[C@]1(O)C(=O)C(C)=C[C@H]13 [SUW430] | – | 1.47 nM | 1.5 nM | 0.1684 | – | – | 40 fold | – | – | –
8 | C/C=C(\C)C(=O)O[C@@H]1[C@@H](C)[C@@]2(O)[C@H]([C@@H]3C(C)(C)[C@]13OC(=O)Cc1cccc3ccccc13)[C@@H]1O[C@]1(CO)[C@@H](O)[C@]1(O)C(=O)C(C)=C[C@H]12 [SUW431] | – | 0.079 nM | – | -1.102 | remarkable affinities in the picomolar range | – | 1.4 fold | ~ 20 fold | 0.079 nM | –
9 | C/C=C(\C)C(=O)O[C@@H]1[C@@H](C)[C@@]2(O)[C@@H](C=C(CO)C[C@]3(O)C(=O)C(C)=C[C@@H]23)[C@@H]2C(C)(C)[C@]12OC(=O)[C@@H](C)CC [SUW402] | 3.7 | 0.118 nM | 0.12 nM | -0.9263 | remarkable affinities in the picomolar range | – | – | – | – | –
10 | CC=C(C)C(=O)OC1C(C)C2(O)C(C3OC3(CO)CC3(O)C(=O)C(C)=CC32)C2C(C)(C)C12OC(=O)C(C)CC (stereo not drawn) [SUW403] | 2.7 | 7.9 nM | 7.9 nM | 0.8975 | – | approximately fivefold | – | – | – | –
11 | C/C=C(\C)C(=O)O[C@@H]1[C@@H](C)[C@@]2(O)[C@H]([C@@H]3C(C)(C)[C@]13OC(=O)C1CCC1)[C@@H]1O[C@]1(CO)[C@@H](O)[C@]1(O)C(=O)C(C)=C[C@H]12 [SUW406] | 3.8 | 1.98 nM | 2 nM | 0.2968 | – | – | fourfold | – | – | –
12 | C/C=C(\C)C(=O)O[C@@H]1[C@@H](C)[C@@]2(O)[C@H]([C@@H]3C(C)(C)[C@]13OC(=O)N1CCCC1)[C@@H]1O[C@]1(CO)[C@@H](O)[C@]1(O)C(=O)C(C)=C[C@H]12 [SUW421] | 9.5 | 20.1 nM | 20 nM and ~25 nM | 1.302 | – | > 10 fold | 10 fold | – | – | –
13 | C/C=C(\C)C(=O)O[C@@H]1[C@@H](C)[C@@]2(O)[C@H]([C@@H]3C(C)(C)[C@]13OC(=O)[C@@H](C)CC)[C@@H]1O[C@]1(CO)[C@@H](O)[C@]1(O)C(=O)C(C)=C[C@H]12 [EBC-46, Tigilanol tiglate] | 2.3 | 1.38 nM | 1.4 nM | 0.1397 | – | – | twofold | – | – | 2.3 ×
14 | C/C=C(\C)C(=O)O[C@@H]1[C@@H](C)[C@@]2(O)[C@H]([C@@H]3C(C)(C)[C@]13OC(=O)c1ccccc1)[C@@H]1O[C@]1(CO)[C@@H](O)[C@]1(O)C(=O)C(C)=C[C@H]12 [SUW428] | 12.5 | 5.12 nM | 5.1 nM | 0.7091 | approximately three times lower affinity for PKC-β compared to EBC-46 | – | > 12 fold | – | – | –
15 | CC[C@H](C)C(=O)O[C@@]12[C@H](OC(=O)N3CCCC3)[C@@H](C)[C@@]3(O)[C@H]([C@@H]1C2(C)C)[C@@H]1O[C@]1(CO)[C@@H](O)[C@]1(O)C(=O)C(C)=C[C@H]13 [SUW424] | 6.1 | 27.8 nM | 28 nM and ~25 nM | 1.445 | – | > 10 fold | 6 fold | – | – | –
